How the values were obtained:
Assay in all cases: Kinase Hotspot radiolabel assay
Format in all cases: biochemical
Conditions in all cases: read-out: % Residual Activity
[1] = molecular target: T1, FLT1/VEGFR1 (Homo sapiens, UniProt P17948)
T1 construct: purchased Reaction Biology Corporation (Kinase HotSpot)
Outline: (§1)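 Specificity was assessed across 369 kinases in a radioactive Hotspot assay, testing one compound concentration (1 µM). For any kinase inhibited above 90%, a Ki value was subsequently obtained.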

[2] = molecular target: T2, c-Src (Homo sapiens, UniProt P12931)
T2 construct: purchased Reaction Biology Corporation (Kinase HotSpot)
Outline: as §1

[3] = molecular target: T3, NEK3 (Homo sapiens, UniProt P51956)
T3 construct: purchased Reaction Biology Corporation (Kinase HotSpot)
Outline: as §1

[4] = molecular target: T4, CAMK1b (Homo sapiens, UniProt Q6P2M8)
T4 construct: purchased Reaction Biology Corporation (Kinase HotSpot)
Outline: as §1

[5] = molecular target: T5, GRK5 (Homo sapiens, UniProt P34947)
T5 construct: purchased Reaction Biology Corporation (Kinase HotSpot)
Outline: as §1

[6] = molecular target: T6, JNK3 (Homo sapiens, UniProt P53779)
T6 construct: purchased Reaction Biology Corporation (Kinase HotSpot)
Outline: as §1

[7] = molecular target: T7, IKKa/CHUK (Homo sapiens, UniProt O15111)
T7 construct: purchased Reaction Biology Corporation (Kinase HotSpot)
Outline: as §1

[8] = molecular target: T8, CDK16/cyclin Y (PCTAIRE) (Homo sapiens, UniProt Q00536)
T8 construct: purchased Reaction Biology Corporation (Kinase HotSpot)
Outline: as §1

[9] = molecular target: T9, BRSK2 (Homo sapiens, UniProt Q8IWQ3)
T9 construct: purchased Reaction Biology Corporation (Kinase HotSpot)
Outline: as §1

[10] = molecular target: T10, TLK1 (Homo sapiens, UniProt Q9UKI8)
T10 construct: purchased Reaction Biology Corporation (Kinase HotSpot)
Outline: as §1

[11] = molecular target: T11, SRMS (Homo sapiens, UniProt Q9H3Y6)
T11 construct: purchased Reaction Biology Corporation (Kinase HotSpot)
Outline: as §1

[12] = molecular target: T12, FES/FPS (Homo sapiens, UniProt P07332)
T12 construct: purchased Reaction Biology Corporation (Kinase HotSpot)
Outline: as §1

[13] = molecular target: T13, PKD2/PRKD2 (Homo sapiens, UniProt Q9BZL6)
T13 construct: purchased Reaction Biology Corporation (Kinase HotSpot)
Outline: as §1

[14] = molecular target: T14, ERN2/IRE2 (Homo sapiens, UniProt Q76MJ5)
T14 construct: purchased Reaction Biology Corporation (Kinase HotSpot)
Outline: as §1

[15] = molecular target: T15, PKCg (Homo sapiens, UniProt P05129)
T15 construct: purchased Reaction Biology Corporation (Kinase HotSpot)
Outline: as §1

[16] = molecular target: T16, RSK2 (Homo sapiens, UniProt P51812)
T16 construct: purchased Reaction Biology Corporation (Kinase HotSpot)
Outline: as §1

[17] = molecular target: T17, CDK1/cyclin E (Homo sapiens, UniProt P06493)
T17 construct: purchased Reaction Biology Corporation (Kinase HotSpot)
Outline: as §1

[18] = molecular target: T18, PDGFRb (Homo sapiens, UniProt P09619)
T18 construct: purchased Reaction Biology Corporation (Kinase HotSpot)
Outline: as §1

[19] = molecular target: T19, CDK2/cyclin A (Homo sapiens, UniProt P24941)
T19 construct: purchased Reaction Biology Corporation (Kinase HotSpot)
Outline: as §1

[20] = molecular target: T20, MEK2 (Homo sapiens, UniProt P36507)
T20 construct: purchased Reaction Biology Corporation (Kinase HotSpot)
Outline: as §1

[21] = molecular target: T21, FGFR3 (Homo sapiens, UniProt P22607)
T21 construct: purchased Reaction Biology Corporation (Kinase HotSpot)
Outline: as §1

[22] = molecular target: T22, IKKe/IKBKE (Homo sapiens, UniProt Q14164)
T22 construct: purchased Reaction Biology Corporation (Kinase HotSpot)
Outline: as §1

[23] = molecular target: T23, NEK5 (Homo sapiens, UniProt Q6P3R8)
T23 construct: purchased Reaction Biology Corporation (Kinase HotSpot)
Outline: as §1

[24] = molecular target: T24, RET (Homo sapiens, UniProt P07949)
T24 construct: purchased Reaction Biology Corporation (Kinase HotSpot)
Outline: as §1

[25] = molecular target: T25, PKCepsilon (Homo sapiens, UniProt Q02156)
T25 construct: purchased Reaction Biology Corporation (Kinase HotSpot)
Outline: as §1

[26] = molecular target: T26, FGFR4 (Homo sapiens, UniProt P22455)
T26 construct: purchased Reaction Biology Corporation (Kinase HotSpot)
Outline: as §1

[27] = molecular target: T27, CDK6/cyclin D1 (Homo sapiens, UniProt Q00534)
T27 construct: purchased Reaction Biology Corporation (Kinase HotSpot)
Outline: as §1

[28] = molecular target: T28, PAK3 (Homo sapiens, UniProt O75914)
T28 construct: purchased Reaction Biology Corporation (Kinase HotSpot)
Outline: as §1

[29] = molecular target: T29, VRK1 (Homo sapiens, UniProt Q99986)
T29 construct: purchased Reaction Biology Corporation (Kinase HotSpot)
Outline: as §1

[30] = molecular target: T30, ALK5/TGFBR1 (Homo sapiens, UniProt P36897)
T30 construct: purchased Reaction Biology Corporation (Kinase HotSpot)
Outline: as §1

T27 sequence (Q00534 whole entry): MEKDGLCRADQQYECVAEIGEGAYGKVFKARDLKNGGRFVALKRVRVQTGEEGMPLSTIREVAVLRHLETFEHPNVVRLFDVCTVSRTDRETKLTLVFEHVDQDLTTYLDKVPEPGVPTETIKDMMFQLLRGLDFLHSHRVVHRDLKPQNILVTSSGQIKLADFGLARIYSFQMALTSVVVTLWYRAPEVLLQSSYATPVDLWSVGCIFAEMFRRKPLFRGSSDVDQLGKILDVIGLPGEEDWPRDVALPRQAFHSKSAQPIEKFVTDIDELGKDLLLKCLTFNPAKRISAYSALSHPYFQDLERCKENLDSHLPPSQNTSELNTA
T27 sequence (P24385 whole entry partner): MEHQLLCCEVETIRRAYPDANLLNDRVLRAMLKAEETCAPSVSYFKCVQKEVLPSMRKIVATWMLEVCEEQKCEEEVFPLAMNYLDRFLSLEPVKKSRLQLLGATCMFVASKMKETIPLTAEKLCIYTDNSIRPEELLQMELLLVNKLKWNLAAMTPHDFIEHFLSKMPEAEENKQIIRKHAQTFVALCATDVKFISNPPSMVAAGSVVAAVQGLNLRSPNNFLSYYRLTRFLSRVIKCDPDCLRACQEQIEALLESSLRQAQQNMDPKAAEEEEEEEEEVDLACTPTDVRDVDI
T13 sequence (Q9BZL6 whole entry): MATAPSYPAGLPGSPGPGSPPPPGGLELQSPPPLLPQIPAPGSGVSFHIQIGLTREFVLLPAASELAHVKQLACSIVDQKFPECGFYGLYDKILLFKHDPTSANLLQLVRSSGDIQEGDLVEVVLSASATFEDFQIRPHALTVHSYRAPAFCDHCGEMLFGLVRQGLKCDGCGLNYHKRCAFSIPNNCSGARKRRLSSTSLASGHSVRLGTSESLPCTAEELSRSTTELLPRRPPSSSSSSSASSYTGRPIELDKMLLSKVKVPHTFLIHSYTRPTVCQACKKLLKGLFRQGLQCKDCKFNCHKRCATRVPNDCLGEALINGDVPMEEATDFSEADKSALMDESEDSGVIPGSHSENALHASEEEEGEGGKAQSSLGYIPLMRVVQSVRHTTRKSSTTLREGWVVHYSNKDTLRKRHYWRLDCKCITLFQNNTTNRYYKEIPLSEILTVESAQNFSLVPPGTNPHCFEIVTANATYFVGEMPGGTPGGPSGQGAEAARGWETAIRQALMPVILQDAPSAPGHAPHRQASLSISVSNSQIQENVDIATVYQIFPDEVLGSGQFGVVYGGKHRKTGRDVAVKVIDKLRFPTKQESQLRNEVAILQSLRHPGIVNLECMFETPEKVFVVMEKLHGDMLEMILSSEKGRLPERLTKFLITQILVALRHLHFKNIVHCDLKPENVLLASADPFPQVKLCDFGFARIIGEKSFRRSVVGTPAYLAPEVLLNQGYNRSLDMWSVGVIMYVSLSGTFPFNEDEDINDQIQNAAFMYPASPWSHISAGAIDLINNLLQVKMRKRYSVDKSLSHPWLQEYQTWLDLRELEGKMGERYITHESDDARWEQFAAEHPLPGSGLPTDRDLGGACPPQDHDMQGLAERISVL
T2 sequence (P12931 whole entry): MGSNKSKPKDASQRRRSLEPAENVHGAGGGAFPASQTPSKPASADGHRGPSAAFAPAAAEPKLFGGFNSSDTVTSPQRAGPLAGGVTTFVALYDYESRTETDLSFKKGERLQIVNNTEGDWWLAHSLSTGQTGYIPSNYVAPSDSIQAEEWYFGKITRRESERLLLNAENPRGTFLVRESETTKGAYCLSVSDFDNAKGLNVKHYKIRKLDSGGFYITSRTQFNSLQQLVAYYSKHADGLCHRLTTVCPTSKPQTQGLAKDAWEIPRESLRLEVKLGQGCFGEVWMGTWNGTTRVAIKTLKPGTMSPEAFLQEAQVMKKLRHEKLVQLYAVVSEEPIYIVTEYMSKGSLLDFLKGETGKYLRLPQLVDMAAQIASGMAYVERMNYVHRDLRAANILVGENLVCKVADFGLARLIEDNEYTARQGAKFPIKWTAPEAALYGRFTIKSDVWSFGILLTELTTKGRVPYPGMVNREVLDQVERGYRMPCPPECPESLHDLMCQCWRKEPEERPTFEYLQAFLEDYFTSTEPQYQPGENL
T11 sequence (Q9H3Y6 whole entry): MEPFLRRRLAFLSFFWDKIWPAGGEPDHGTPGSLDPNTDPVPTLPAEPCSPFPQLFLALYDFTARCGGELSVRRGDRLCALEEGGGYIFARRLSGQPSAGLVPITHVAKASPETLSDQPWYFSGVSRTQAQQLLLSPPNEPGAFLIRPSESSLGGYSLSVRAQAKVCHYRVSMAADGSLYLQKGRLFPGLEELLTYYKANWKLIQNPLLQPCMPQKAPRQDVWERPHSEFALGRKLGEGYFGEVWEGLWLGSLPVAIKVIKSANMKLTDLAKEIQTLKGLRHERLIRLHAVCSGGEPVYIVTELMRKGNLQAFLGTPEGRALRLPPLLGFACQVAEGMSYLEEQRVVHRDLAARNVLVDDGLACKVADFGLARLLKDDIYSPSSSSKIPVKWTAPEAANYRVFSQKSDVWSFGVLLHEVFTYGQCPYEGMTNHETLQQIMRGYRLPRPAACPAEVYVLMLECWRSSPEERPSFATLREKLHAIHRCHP
T18 sequence (P09619 33-1106): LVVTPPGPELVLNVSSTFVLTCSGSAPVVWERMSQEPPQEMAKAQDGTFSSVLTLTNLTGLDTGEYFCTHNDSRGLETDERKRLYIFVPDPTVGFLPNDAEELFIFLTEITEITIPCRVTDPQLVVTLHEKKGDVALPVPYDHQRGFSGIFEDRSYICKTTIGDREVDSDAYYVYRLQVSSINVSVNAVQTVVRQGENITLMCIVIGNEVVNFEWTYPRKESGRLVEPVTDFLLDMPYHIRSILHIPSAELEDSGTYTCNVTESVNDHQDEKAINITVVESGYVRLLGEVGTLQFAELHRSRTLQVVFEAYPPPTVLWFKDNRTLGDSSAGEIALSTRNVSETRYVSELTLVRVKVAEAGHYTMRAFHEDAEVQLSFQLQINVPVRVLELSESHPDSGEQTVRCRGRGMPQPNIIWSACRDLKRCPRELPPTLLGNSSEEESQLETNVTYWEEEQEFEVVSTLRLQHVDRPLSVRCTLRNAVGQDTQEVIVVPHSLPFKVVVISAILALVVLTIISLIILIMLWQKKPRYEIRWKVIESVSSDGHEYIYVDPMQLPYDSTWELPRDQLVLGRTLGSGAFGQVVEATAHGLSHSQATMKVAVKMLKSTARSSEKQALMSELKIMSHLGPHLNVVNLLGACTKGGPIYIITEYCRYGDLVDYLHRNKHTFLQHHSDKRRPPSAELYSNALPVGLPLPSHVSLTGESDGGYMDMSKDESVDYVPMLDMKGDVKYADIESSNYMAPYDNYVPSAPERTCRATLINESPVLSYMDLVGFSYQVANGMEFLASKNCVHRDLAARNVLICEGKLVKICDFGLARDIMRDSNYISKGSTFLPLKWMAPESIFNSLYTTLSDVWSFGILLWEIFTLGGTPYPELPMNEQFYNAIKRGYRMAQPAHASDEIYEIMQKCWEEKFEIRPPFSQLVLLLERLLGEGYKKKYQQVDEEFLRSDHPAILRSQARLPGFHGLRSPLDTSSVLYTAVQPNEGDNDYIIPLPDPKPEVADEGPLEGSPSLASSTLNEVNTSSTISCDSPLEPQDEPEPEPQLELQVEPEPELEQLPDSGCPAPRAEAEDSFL
T4 sequence (Q6P2M8 whole entry): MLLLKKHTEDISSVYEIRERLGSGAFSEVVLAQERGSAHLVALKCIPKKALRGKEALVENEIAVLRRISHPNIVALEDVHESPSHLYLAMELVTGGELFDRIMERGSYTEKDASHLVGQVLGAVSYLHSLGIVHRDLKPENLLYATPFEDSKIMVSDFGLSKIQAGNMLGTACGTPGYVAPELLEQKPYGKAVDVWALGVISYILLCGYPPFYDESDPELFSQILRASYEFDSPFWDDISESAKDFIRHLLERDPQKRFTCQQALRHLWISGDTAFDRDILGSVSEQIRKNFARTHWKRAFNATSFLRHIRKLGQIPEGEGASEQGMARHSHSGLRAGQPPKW

Cc1cnc(N[C@H]2CC[C@H](N)CC2)nc1-c1cnc2ccc(-c3ccccc3)cn12 [CDDD11-8]
remaining activity at 1 µM [1]: 53.4% | remaining activity at 1 µM [2]: 49.5% | remaining activity at 1 µM [3]: 92.8% | remaining activity at 1 µM [4]: 96.1% | remaining activity at 1 µM [5]: 88.9% | remaining activity at 1 µM [6]: 81.3% | remaining activity at 1 µM [7]: 98.5% | remaining activity at 1 µM [8]: 57.4% | remaining activity at 1 µM [9]: 96.5% | remaining activity at 1 µM [10]: 110% | remaining activity at 1 µM [11]: 101% | remaining activity at 1 µM [12]: 86.2% | remaining activity at 1 µM [13]: 62.7% | remaining activity at 1 µM [14]: 45.4% | remaining activity at 1 µM [15]: 87.9% | remaining activity at 1 µM [16]: 71% | remaining activity at 1 µM [17]: 87.5% | remaining activity at 1 µM [18]: 40.2% | remaining activity at 1 µM [19]: 55% | remaining activity at 1 µM [20]: 79.1% | remaining activity at 1 µM [21]: 92.8% | remaining activity at 1 µM [22]: 91.7% | remaining activity at 1 µM [23]: 28.7% | remaining activity at 1 µM [24]: 84.4% | remaining activity at 1 µM [25]: 54.7% | remaining activity at 1 µM [26]: 104% | remaining activity at 1 µM [27]: 80.7% | remaining activity at 1 µM [28]: 87.5% | remaining activity at 1 µM [29]: 42.4% | remaining activity at 1 µM [30]: 93.9%

From article PMC8909834, “An Orally Bioavailable and Highly Efficacious Inhibitor of CDK9/FLT3 for the Treatment of Acute Myeloid Leukemia” (Cancers, 2022)
